IC50 data for 58 compounds are collected here from patent EP1900728A1 (Genecare Research Institute Co., Ltd, priority 2005, dated 2006).

SMILES strings stand for the structures. pIC50: −log10 of the molar value. Where only a bound is given, the exact number is not on record here.

The target in the first test is T1, IκBα ubiquitinating enzyme (SCF complex: ROC1, Cullin1, Skp1, His-TrCP1; with E1, UbcH5b) (Homo sapiens, UniProt P62877+P63208+Q13616+Q9Y297).
T1 construct: His (polyhistidine); made in house; host or cells: insect cells (baculovirus) for the SCF complex and His-E1; E. coli for His-UBCH5b
T1 sequence (Q9Y297 whole entry): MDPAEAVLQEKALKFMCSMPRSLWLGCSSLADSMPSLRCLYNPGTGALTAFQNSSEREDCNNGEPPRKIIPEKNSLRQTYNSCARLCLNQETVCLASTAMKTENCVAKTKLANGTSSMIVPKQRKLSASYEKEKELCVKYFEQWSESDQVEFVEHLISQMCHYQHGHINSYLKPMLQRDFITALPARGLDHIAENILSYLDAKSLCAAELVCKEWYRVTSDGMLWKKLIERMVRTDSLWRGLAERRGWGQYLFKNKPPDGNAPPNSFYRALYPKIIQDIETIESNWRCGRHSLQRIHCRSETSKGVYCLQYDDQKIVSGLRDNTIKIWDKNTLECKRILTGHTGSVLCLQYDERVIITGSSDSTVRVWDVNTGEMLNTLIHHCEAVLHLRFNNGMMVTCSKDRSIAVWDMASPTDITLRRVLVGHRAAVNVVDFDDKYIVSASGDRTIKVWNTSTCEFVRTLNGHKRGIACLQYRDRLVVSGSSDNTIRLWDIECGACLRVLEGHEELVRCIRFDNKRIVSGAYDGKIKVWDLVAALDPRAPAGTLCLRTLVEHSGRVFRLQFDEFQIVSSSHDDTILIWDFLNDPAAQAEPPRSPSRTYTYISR
T1 sequence (Q13616 whole entry): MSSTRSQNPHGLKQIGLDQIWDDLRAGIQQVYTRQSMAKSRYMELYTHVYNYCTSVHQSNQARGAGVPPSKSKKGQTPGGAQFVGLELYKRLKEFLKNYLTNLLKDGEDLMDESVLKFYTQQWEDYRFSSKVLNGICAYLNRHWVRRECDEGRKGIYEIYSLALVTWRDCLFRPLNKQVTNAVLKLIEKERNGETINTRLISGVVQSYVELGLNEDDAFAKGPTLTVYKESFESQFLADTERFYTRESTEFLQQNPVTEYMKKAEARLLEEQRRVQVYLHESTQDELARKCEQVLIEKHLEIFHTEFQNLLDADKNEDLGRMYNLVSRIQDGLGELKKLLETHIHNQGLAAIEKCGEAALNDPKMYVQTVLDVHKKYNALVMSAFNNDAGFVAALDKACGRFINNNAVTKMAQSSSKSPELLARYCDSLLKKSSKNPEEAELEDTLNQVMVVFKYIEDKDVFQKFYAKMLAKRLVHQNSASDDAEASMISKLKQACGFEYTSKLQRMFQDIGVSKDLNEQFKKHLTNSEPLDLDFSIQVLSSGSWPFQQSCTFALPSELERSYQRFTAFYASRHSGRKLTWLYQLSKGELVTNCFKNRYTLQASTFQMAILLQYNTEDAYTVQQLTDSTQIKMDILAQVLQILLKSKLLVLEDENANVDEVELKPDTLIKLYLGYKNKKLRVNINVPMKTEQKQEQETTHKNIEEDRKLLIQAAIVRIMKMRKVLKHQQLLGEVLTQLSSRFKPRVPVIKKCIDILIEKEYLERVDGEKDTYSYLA
T1 sequence (P63208 whole entry): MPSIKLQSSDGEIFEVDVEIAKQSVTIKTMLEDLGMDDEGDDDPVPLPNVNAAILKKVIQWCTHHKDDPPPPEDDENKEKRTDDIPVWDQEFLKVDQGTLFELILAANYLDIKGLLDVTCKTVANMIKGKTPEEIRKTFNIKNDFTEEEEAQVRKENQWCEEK
T1 sequence (P62877 whole entry): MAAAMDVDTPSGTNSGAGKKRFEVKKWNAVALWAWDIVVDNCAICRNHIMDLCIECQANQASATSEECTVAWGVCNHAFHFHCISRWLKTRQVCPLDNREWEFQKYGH
Description: Measurement of ubiquitinating enzyme activity (IκBα ubiquitination, time-resolved fluorescence with Eu(K)-labeled ubiquitin and XL665-labeled anti-GST antibody). The conditions noted are these: enzyme activity inhibition test, method (1), Table 5; read-out: EVALUATION
The class given is biochemical. A digest of the protocol: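 Human SCF complex with E1 and UbcH5b ubiquitinated GST-IκBα pre-phosphorylated by IKKβ (2 mM ATP, pH 7.4, 1 h, RT), with Eu(K)-ubiquitin, 30 min RT. Stopped with EDTA, XL665 anti-GST added for 2 h; 665/620 nm TR-FRET ratio. % inhibition versus no-compound control and no-SCF blank gave IC50.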
In the case of `CC1=NN(c2cccc(C(=O)O)c2)C(=O)/C1=C\c1ccc(-c2ccccc2F)o1` [Compound 486], the pIC50 was 4.70 to 5.00.
Take `O=C(O)c1ccc(N2N=C(c3ccoc3)/C(=C/c3ccc4[nH]ccc4c3)C2=O)cc1` [Compound 477]: the pIC50 is more than 5.00.
Same read-out and setting: with `COCC1=NN(c2ccccc2)C(=O)/C1=C\c1ccc(-n2cccn2)cc1` [Compound 10] the figure was more than 4.40; with `COC(=O)N1CCN(c2ccc(C=C3C(=O)N(c4ccc(C(=O)O)cc4)N=C3c3ccncc3)cc2)CC1` [Compound 344], more than 4.40.
Still for that read-out and setting: then `O=C(O)c1ccc(N2N=C(Cc3ccccc3)/C(=C/c3ccc(-n4cccn4)cc3)C2=O)cc1` [Compound 275], with 4.70 to 5.00.
Consider `CC1=NN(c2ccc(C(=O)O)cc2)C(=O)/C1=C\c1nccs1` [Compound 257], for which the pIC50 is more than 4.40.
For `COc1ccc(C2=NN(c3ccccc3)C(=O)/C2=C\c2ccc3ccccc3c2)cc1OC` [Compound 97], the pIC50 was 4.70 to 5.00.
Still for that read-out and setting: with `COc1cc(/C=C2\C(=O)N(c3ccccc3)N=C2Cc2ccccc2)ccc1O` [Compound 22] the figure was 4.70 to 5.00; with `CC1=NN(c2cccc(C(=O)N3CCC(CO)CC3)c2)C(=O)/C1=C\c1ccc2[nH]ccc2c1` [Compound 371], more than 5.00; with `CC1=NN(c2cccc(C(=O)N(C)CCO)c2)C(=O)/C1=C\c1ccc2c(c1)OCCO2` [Compound 414], 4.70 to 5.00.
Still for that read-out and setting: then `CC1=NN(c2cccc(C(=O)O)c2)C(=O)/C1=C\c1cccc2[nH]ccc12` [Compound 355], with more than 5.00; and `O=C1/C(=C\c2ccc(-n3cccn3)cc2)C(c2cccnc2)=NN1c1ccccc1` [Compound 67], with more than 4.40; and `COc1cc(/C=C2\C(=O)N(c3cccc(S(N)(=O)=O)c3)N=C2C)ccc1OS(=O)(=O)c1ccc(C)cc1` [Compound 203], with 4.70 to 5.00.
As to `CCOC(=O)c1ccc(COc2ccc(/C=C3\C(=O)N(c4cccc(S(N)(=O)=O)c4)N=C3C)cc2OC)o1` [Compound 155], the pIC50 was more than 4.40.
Turning to `CC1=NN(c2cccc(C(=O)O)c2)C(=O)/C1=C\c1ccc(-n2cccn2)cc1` [Compound 379], the pIC50 is more than 5.00.
Still for that read-out and setting: with `CC1=NN(c2ccc(C(=O)O)cc2)C(=O)/C1=C\c1ccc(S(=O)(=O)O)o1` [Compound 525] the figure was 4.70 to 5.00; with `CC1=NN(c2cccc(C(=O)O)c2)C(=O)/C1=C\c1ccc2[nH]ccc2c1` [Compound 364], more than 5.00; with `CCCCC1=NN(c2ccccc2)C(=O)/C1=C\c1nccs1` [Compound 105], more than 4.40.
With `COc1cc(/C=C2\C(=O)N(c3cccc(S(N)(=O)=O)c3)N=C2C)ccc1OCc1c(C)noc1C` [Compound 153], the pIC50 was more than 4.40.
The same measure, in the same setting: with `O=C(O)c1ccc(N2N=C(c3cccnc3)/C(=C/c3ccc(N4CCCC4)cc3)C2=O)cc1` [Compound 309] the figure was more than 4.40; with `CC1=NN(c2ccc(S(N)(=O)=O)cc2)C(=O)C1=Cc1cccc2cc[nH]c12` [Compound 151], more than 5.00.
On to `CC1=NN(c2ccc(S(N)(=O)=O)cc2)C(=O)C1=Cc1cccc(C(=O)O)c1` [Compound 222], for which the pIC50 was 4.70 to 5.00.
The same measure, in the same setting: with `COC(=O)N1CCN(c2ccc(/C=C3\C(=O)N(c4ccccc4)N=C3c3cccnc3)cc2)CC1` [Compound 62] the figure was more than 4.40; with `CC1=NN(c2cccc(C(=O)N3CCCCC3)c2)C(=O)/C1=C\c1ccc2[nH]ccc2c1` [Compound 369], more than 5.00.
For `O=C1/C(=C\c2ccc(-c3ccccc3F)o2)C(c2ccoc2)=NN1c1ccccc1` [Compound 15], the pIC50 was more than 5.00.
Take `CCCCC1=NN(c2ccccc2)C(=O)/C1=C\c1ccc2ccccc2c1` [Compound 51]: the pIC50 is more than 4.40.
Still for that read-out and setting: then `CCCCC1=NN(c2ccccc2)C(=O)/C1=C\c1ccc(OCc2ccccc2)c(OC)c1` [Compound 52], with more than 4.40; and `CC1=NN(c2cccc(C(=O)O)c2)C(=O)/C1=C\c1ccc2cc[nH]c2c1` [Compound 381], with more than 5.00.
The same measure, in the same setting: then `Cn1cc(-c2ccc(/C=C3\C(=O)N(c4cccc(C(=O)O)c4)N=C3Cc3ccccc3)o2)cn1` [Compound 510], with more than 4.40; and `CC1=NN(c2cccc(S(N)(=O)=O)c2)C(=O)/C1=C\c1ccc(N2CCC(O)C2)cc1` (stereo not drawn) [Compound 178], with more than 4.40; and `CC1=NN(c2cccc(C(=O)O)c2)C(=O)/C1=C\c1ccc2c(ccn2C(=O)c2ccccc2)c1` [Compound 529], with more than 5.00.
The same measure, in the same setting: then `CC1=NN(c2ccc(S(N)(=O)=O)cc2)C(=O)/C1=C\c1ccc(C(=O)O)cc1` [Compound 223], with 4.70 to 5.00.
For the compound `COc1cc(/C=C2\C(=O)N(c3ccccc3)N=C2c2ccncc2)ccc1O` [Compound 40], the pIC50 is more than 4.40.
`COc1ccc(C2=NN(c3ccc(C(=O)O)cc3)C(=O)C2=Cc2ccc(-n3cncn3)cc2)cc1OC` [Compound 343]: the pIC50 is more than 4.40.
As to `CCCNC(=O)COc1ccc(/C=C2\C(=O)N(c3ccc(C(=O)O)cc3)N=C2C)cc1` [Compound 534], the pIC50 is 4.70 to 5.00.
As to `O=C(O)c1ccc(N2N=C(C3CC3)/C(=C/c3ccc(-n4ccnc4)cc3)C2=O)cc1` [Compound 318], the pIC50 was more than 5.00.
Consider `O=C(O)c1ccc(N2N=C(Cc3ccccc3)/C(=C/c3ccc4ccccc4c3)C2=O)cc1` [Compound 264], for which the pIC50 was 4.70 to 5.00.
Regarding `CC1=NN(c2cccc(S(N)(=O)=O)c2)C(=O)/C1=C\c1ccc(N2CCN(c3ccc(F)cc3)CC2)cc1` [Compound 177], the pIC50 is 4.70 to 5.00.
In the case of `CC1=NN(c2ccc(C(=O)N3CCC(C(=O)O)CC3)cc2)C(=O)/C1=C\c1ccc2[nH]ccc2c1` [Compound 352], the pIC50 was more than 5.00.
The same measure, in the same setting: then `CCOC(=O)CN1N=C(C)/C(=C/c2ccc(O)c(OC)c2)C1=O` [Compound 130], with 4.70 to 5.00.
On the same count and under the same terms, then `CC1=NN(c2ccc(S(N)(=O)=O)cc2)C(=O)C1=Cc1ccc(NC(=O)c2ccco2)cc1` [Compound 231], with more than 5.00.
`CC1=NN(c2ccc(C(=O)O)cc2)C(=O)/C1=C\c1cccc2nccnc12` [Compound 331]: the pIC50 is 4.70 to 5.00.
On the same count and under the same terms, then `CCCCC1=NN(c2ccccc2)C(=O)C1=Cc1ccc(N2CCN(C)CC2)cc1` [Compound 106], with more than 4.40; and `COc1ccc(C2=NN(c3ccccc3)C(=O)C2=Cc2ccc(CO)o2)cc1OC` [Compound 35], with more than 4.40; and `CC1=NN(c2ccc(C(=O)O)cc2)C(=O)/C1=C\c1cccs1` [Compound 517], with more than 4.40.
On to `CC1=NN(c2cccc(C(=O)O)c2)C(=O)/C1=C\c1c[nH]c2ccc(Cl)cc12` [Compound 377], for which the pIC50 was more than 5.00.
Regarding `O=C1/C(=C\c2ccc(CO)o2)C(C2CC2)=NN1c1ccccc1` [Compound 75], the pIC50 was 4.70 to 5.00.
On the same count and under the same terms, with `COCC1=NN(c2ccccc2)C(=O)/C1=C\c1ccc(OCc2ccccc2)c(OC)c1` [Compound 3] the figure was 4.70 to 5.00.
Regarding `COc1ccc(C2=NN(c3ccccc3)C(=O)/C2=C\c2ccc(CO)o2)cc1` [Compound 90], the pIC50 was more than 4.40.
Take `COCC1=NN(c2ccc(C(=O)O)cc2)C(=O)/C1=C\c1ccc2[nH]ccc2c1` [Compound 465]: the pIC50 was more than 5.00.
On to `COc1cc(/C=C2\C(=O)N(c3ccc(C(=O)O)cc3)N=C2c2ccccn2)ccc1OCc1ccccc1` [Compound 289], for which the pIC50 was 4.70 to 5.00.
On the same count and under the same terms, with `O=C(O)c1ccc(N2N=C(Cc3ccccc3)/C(=C/c3nccs3)C2=O)cc1` [Compound 270] the figure was more than 4.40; with `COc1ccc(C2=NN(c3ccc(C(=O)O)cc3)C(=O)C2=Cc2ccc(N3CCN(C)CC3)cc2)cc1OC` [Compound 285], 4.70 to 5.00.
Same read-out and setting: with `COc1ccc(C2=NN(c3ccc(C(=O)O)cc3)C(=O)/C2=C\c2cccc3nccnc23)cc1OC` [Compound 278] the figure was more than 4.40.
As for `CC1=NN(c2ccc(C(=O)O)cc2)C(=O)/C1=C\c1ccc2cc[nH]c2c1` [Compound 380], the pIC50 is more than 5.00.
The same measure, in the same setting: with `O=C(O)c1ccc(N2N=C(c3ccncc3)/C(=C/c3ccc(-c4ccccc4F)o3)C2=O)cc1` [Compound 341] the figure was 4.70 to 5.00; with `O=C1/C(=C\c2ccc(-c3ccccc3F)o2)C(Cc2ccccc2)=NN1c1ccccc1` [Compound 26], more than 4.40; with `CN1CCN(c2ccc(/C=C3\C(=O)N(c4ccccc4)N=C3C3CC3)cc2)CC1` [Compound 78], 4.70 to 5.00.

The next test has as its system ICAM-1 expression in HT-29 cells. Put plainly: Measurement of ICAM-1 expressing activity (TNFα-induced ICAM-1 expression, cell ELISA). The class given is cell-based. The conditions noted are these: Homo sapiens, Table 6, cell activity inhibition test by method (3), read-out: EVALUATION (IC50 class, inhibition of cell activity). As for the experimental part: Method 2: Measurement of ICAM-1 expressing activity
2.0 x 10^4 HT-29 cells (ATCC) were plated onto a 96-well plate, and the cells were cultured for 48 hours using a McCoy' 5A medium (GIBCO) containing 10% inactivated fetal calf serum. The culture medium was removed, a culture medium containing a compound to be evaluated (final DMSO concentration of 0.5%) was added, and this was incubated at 37°C for 30 minutes. Thirty ng/mL of human TNFα (GIBCO) was added, and this was incubated at 37°C for 4 hours. After washing once with a washing solution (PBS containing 0.05% Tween 20), ice-cooled methanol was added, and this was left on ice for 10 minutes and then fixed. After removing methanol, PBS containing 1% BSA was added, and blocking was performed by letting this stand at room temperature for 30 minutes. Anti-ICAM-1 antibody (Santa Cruz Biotechnology) was added, and this was left to stand at room temperature for 1 hour. After washing with the washing solution, POD-labeled secondary antibody was added, and this was left to stand at room temperature for 30 minutes. This was washed, 100 µL of 100 mM citric acid buffer (pH4.2) containing 1 mM TMBZ and 0.03% H2O2 was added, and this was reacted at room temperature for 15 minutes. The reaction was terminated with 100 µL of 2 N H2SO4, and the absorbance at 450 nm was measured using ARVO-HTS (Perkin Elmer).
When cells are stimulated with TNFα, IκBα is degraded after ubiquitination resulting in the activation of NFκB and the promotion of the expression of adhesion factor ICAM-1. Therefore, the suppression of ICAM-1 expression described above serves as an indicator to determine the effectiveness of the compound in the cells.
(In general: ELISA stands for enzyme-linked immunosorbent assay.)
With `CC1=NN(c2cccc(C(=O)O)c2)C(=O)/C1=C\c1ccc(-c2ccccc2F)o1` [Compound 486], the pIC50 was more than 4.40.
Still for that read-out and setting: then `O=C(O)c1ccc(N2N=C(c3ccoc3)/C(=C/c3ccc4[nH]ccc4c3)C2=O)cc1` [Compound 477], with more than 4.40.
